According to patent US20060019971A1, “Treatment of cardiovascular disease with inhibitors of p38 kinase” (priority 2003, published 2006):
Entries after “also recorded” stand apart in the source; their conditions may differ.

What was measured:
Type in all cases: cell-based, human
IL-8 mRNA in HPBMCs = experiment: IL-8 gene expression in HPBMCs, real-time PCR; details: 1 μM SD
Description: 8×10^5 HPBMCs were plated in 96-well. After 1 hour medium was removed and cells were incubated with or without 10 μg/ml of purified human CRP in serum-free RPMI 1640. In parallel experiments cells were treated with 10% FCS together with the CRP treatment. For the p38 antagonism, p38 inhibitor was added to a final concentration of 1 μM in the parallel treatment. After 6 hours conditioned medium were collected and IL-6 and IL-8 levels were determined by ELISA. […] 5×10^6 HPBMCs were plated in 6-well. After 1 hour medium was removed and cells were treated with vehicle or 1 μM p38 inhibitor in RPMI 1640 medium. After 1 hour cells were stimulated with 10% FCS only or 10 μg/ml CRP plus 10% FCS. After 2 hours RNA was extracted from the cells and IL-8 expression level was determined by real-time PCR as described in the Experimental section.
(§1) Cryopreserved human peripheral blood monocytes (HPBMCs, from Biowitker, Walkersvill, Md.) were thawed and washed twice in RPMI 1640. Cells were plated in tissue culture plates and incubated in 5% CO2 at 37 C. After 1 hr media were removed and cells were treated with various treatments. […]
(§2) RNA was extracted from the cells using Qiagen RNA extraction kit according to the manufacturer's instruction. The expression of pro-inflammatory genes IL-1β, IL-6, IL-8, TNFα, COX-2, ET-1, TF were assessed by real-time PCR. […]

TF mRNA in HPBMCs = experiment: Tissue Factor mRNA expression in HPBMCs, real-time PCR; details: 1 μM SD, 6 hours
Description: The figures illustrate the effects of CRP on TF protein and mRNA expression in HPBMCs and their modulation by p38 inhibitor. 1.5×10^6 HPBMCs were plated in 48-well. After 1 hour medium was removed and cells were incubated with or without 10 μg/ml of purified human CRP in serum-free RPMI 1640. In parallel experiments, cells were treated with 10% FCS together with the CRP treatment. For the p38 antagonism, p38 inhibitor was added to a final concentration of 1 μM in the parallel treatment. After 16 hours cells were lysed and TF protein level was determined by Western blot. TF signal was normalized by GAPDH signal. As shown in FIG. 7(c), after 6 hours TF mRNA level were determined by real-time PCR as described in the Experimental section. […]
as §2
(§3) Real-time RT-PCR was performed in a two-step manner. cDNA synthesis and real-time detection were carried out in a PTC-100™ Thermal Cycler (MJ Research Inc, Waltham, Mass.) and an ABI Prism™ 7700 Sequence Detection System (Applied Biosystems, Foster City, Calif.), respectively. […] Relative quantitation of gene expression was performed using the relative standard curve method. […]

IL-1β mRNA in HPBMCs = experiment: IL-1β gene expression in HPBMCs, real-time PCR; details: 1 μM SD, 2 hrs
Description: 5×10^6 HPBMCs were plated in 6-well. After 1 hour medium was removed and cells were treated with vehicle or 1μM p38 inhibitor in RPMI 1640 medium. After 1 hour cells were stimulated with 10% FCS only or 10 μg/ml CRP plus 10% FCS. After 6 hours conditioned medium was collected and IL-1b and TNFa levels were determined by ELISA. […] 5×10^6 HPBMCs were plated in 6-well. After I hour medium was removed and cells were treated with vehicle or […] p38 inhibitor in RPMI 1640 medium. After 1 hour cells were stimulated with 10% FCS only or 10 μg/ml CRP plus 10% FCS. After 2 hours RNA was extracted from the cells and TNFa (c) and IL-1b (d) expression levels were determined by real-time PCR as described in the Experimental section. […]
as §2, §3

COX-2 mRNA in HPBMCs = experiment: COX-2 gene expression in HPBMCs, real-time PCR; details: 6 hours
Description: 5×10^6 HPBMCs were plated in 6-well. After 1 hour medium was removed and cells were treated with vehicle or 1 μM p38 inhibitor in RPMI 1640 medium. After 1 hour cells were stimulated with 10% FCS only or 10 μg/ml CRP plus 10% FCS. After 6 hours RNA was extracted from the cells and COX-2 gene expression level was determined by real-time PCR as described in the Experimental section.
as §1, with “treatments. After 2 to 20 hours conditioned media and/or cell lysates were collected for the analyses of secreted cytokines, protein or mRNA expression.” for “treatments.”
as §2, §3

TF protein in HPBMCs = experiment: Tissue Factor protein expression in HPBMCs, Western; details: 1 μM SD, 16 hours
Description: The figures illustrate the effects of CRP on TF protein and mRNA expression in HPBMCs and their modulation by p38 inhibitor. 1.5×10^6 HPBMCs were plated in 48-well. After 1 hour medium was removed and cells were incubated with or without 10 μg/ml of purified human CRP in serum-free RPMI 1640. In parallel experiments, cells were treated with 10% FCS together with the CRP treatment. For the p38 antagonism, p38 inhibitor was added to a final concentration of 1 μM in the parallel treatment. After 16 hours cells were lysed and TF protein level was determined by Western blot. TF signal was normalized by GAPDH signal. As shown in FIG. 7(c), after 6 hours TF mRNA level were determined by real-time PCR as described in the Experimental section.
Cryopreserved human peripheral blood monocytes (HPBMCs, from Biowitker, Walkersvill, Md.) were thawed and washed twice in RPMI 1640. Cells were plated in tissue culture plates and incubated in 5% CO2 at 37 C. After 1 hr media were removed and cells were treated with various treatments. After 2 to 20 hours conditioned media and/or cell lysates were collected for the analyses of secreted cytokines, protein or mRNA expression. 10 μg/ml of purified human CRP (Calbiochem, San Diego, Calif.) was used in most of the treatments. In some experiments fetal calf serum (FCS from ATCC) was added to a final concentration of 10% together with CRP. In the examples provided herein, including those assessing the effects of p38 antagonism, cells were pre-treated with SD, a p38 small molecule inhibitor (Compound 162 in Table A) for 1 hour prior to CRP treatment as described above. In a parallel series of experiments, the effect of vehicle (DMSO) was tested. […]
HPBMCs were treated as described above (p38 MAP kinase activation). […] 10 μg total proteins were resolved on LDS-PAGE (In Vitrogen, Carlsbad, Calif.), and tissue factor protein expression was determined by Western using antibody against human tissue factor (American Diagnostica, Stamford, Conn.). […]

Compound: C[C@@H]1CN(Cc2ccc(F)cc2)[C@@H](C)CN1C(=O)c1cc2c(C(=O)C(=O)N(C)C)c[nH]c2cc1Cl [Compound 162]
- inhibition of FCS invoked IL-8 expression (IL-8 mRNA in HPBMCs): almost completely inhibited
- inhibition of CRP increased IL-8 mRNA level (IL-8 mRNA in HPBMCs; at 6 hours): almost completely inhibited
- inhibition of basal TF mRNA expression (TF mRNA in HPBMCs): almost completely inhibitied
- inhibition of CRP induced TF mRNA expression (TF mRNA in HPBMCs; listed as SD): almost completely inhibitied; also recorded: blocked
- inhibition of FCS induced expression of IL-1β gene (IL-1β mRNA in HPBMCs): attenuated
- inhibition of CRP-invoked COX-2 mRNA expression (COX-2 mRNA in HPBMCs; 1 μM SD pre-treatment, listed as SD): almost completely blocked; also recorded: almost completely inhibited
- inhibition of FCS induced COX-2 mRNA (COX-2 mRNA in HPBMCs; 1 μM SD): completely inhibited
- reduction of TF protein expression invoked by CRP plus FCS (TF protein in HPBMCs): to control level
- reduction of TF protein expression invoked by FCS (TF protein in HPBMCs): to control level
- reduction of TF protein expression invoked by CRP (TF protein in HPBMCs; listed as SD): to control level; also recorded: blocked
